Measurements published in patent publication US4705854A, “Phenothiazine compounds” (priority 1984, dated 1987).
Read-outs that look alike come from different tables or passages of the source. Values belong to the compound of their own block, whether it stands above or below them.

How the values were obtained:
[1] = target: T1, longitudinal muscle from the intact ileum of guinea-pigs (histamine) (Cavia porcellus, UniProt P31389); assay: In vitro antihistamine activity: shift of histamine concentration-response curves (Schild plot), isolated guinea-pig ileum longitudinal muscle; type: cell-based; settings: vs histamine, one hour incubation with test compound, 60 min
T1 construct: The longitudinal muscle was isolated from the intact ileum of guinea-pigs; from tissue; host or cells: longitudinal muscle of guinea-pig ileum (Hartley, male)
T1 sequence (P31389 whole entry): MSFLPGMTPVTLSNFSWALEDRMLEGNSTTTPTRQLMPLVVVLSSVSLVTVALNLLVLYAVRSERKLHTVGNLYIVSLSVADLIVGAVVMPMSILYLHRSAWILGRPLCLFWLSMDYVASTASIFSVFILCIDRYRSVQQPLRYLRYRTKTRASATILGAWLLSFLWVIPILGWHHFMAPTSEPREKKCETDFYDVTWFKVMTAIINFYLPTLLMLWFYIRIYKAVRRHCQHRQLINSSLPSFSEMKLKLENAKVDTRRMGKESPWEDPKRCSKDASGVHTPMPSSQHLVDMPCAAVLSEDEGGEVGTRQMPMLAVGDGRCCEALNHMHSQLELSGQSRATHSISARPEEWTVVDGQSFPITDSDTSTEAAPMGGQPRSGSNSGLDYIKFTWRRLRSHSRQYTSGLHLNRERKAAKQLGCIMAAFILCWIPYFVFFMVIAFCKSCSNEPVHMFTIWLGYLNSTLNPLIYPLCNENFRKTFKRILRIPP
Protocol: A. In vitro antihistamine activity: The longitudinal muscle was isolated from the intact ileum of guinea-pigs (Hartley, male 250-400 g) and placed in an organ bath under 300 mg tension. After one hour of equilibration, cumulative concentration-response curves (Van Rossum, J. M., Arch. Int. Pharmacodyn. Ther. 143, 299-330, 1963) to histamine were obtained. Following washing, the tissues were incubated for one hour with the test compound and then a second histamine concentration-response curve was run. Shifts to the right of the agonist concentration-response curve produced by the antagonists were used to construct Schild plots (Arunlakshana, O. and Schild, H. O., Br. J. Pharmacol. 14, 48-58, 1959). Regression of Log (dr-l) on Log [B], where dr is an equiactive response in the presence and absence of antagonist and [B] is the molar concentration of antagonist, allowed an estimate of pA2, i.e. the negative log of the concentration of antagonist which shifts the control histamine concentration response curve 2X to the right.

[2] = background statement on promethazine; cited from earlier work
[3] = cited from earlier work

pA2 [1]: 7.8
Structure (SMILES): CN(C)CCCN1c2ccccc2Sc2ccc(S(=O)(=O)O)cc21 [Example 2, 10-(3'-N,N-Dimethylaminopropyl)phenothiazine-2-sulphonic acid hemihydrate]

Structure (SMILES): CC(CN1c2ccccc2Sc2ccccc21)N(C)C (centres unmarked) [promethazine, 10-(2-dimethylaminopropyl)phenothiazine]
anticholinergic activity [2]: potent anticholinergic activity | sedation or drowsiness ([3]; in some patients, antihistamines now in use): cause sedation or drowsiness in some patients

Structure (SMILES): COc1ccc(CN(CCN(C)C)c2ccccn2)cc1 [pyrilamine]
sedation or drowsiness ([3]; in vivo): cause sedation or drowsiness in some patients

Structure (SMILES): Cc1ccc(/C(=C\CN2CCCC2)c2ccccn2)cc1 [triprolidine]
sedation or drowsiness ([3]; in vivo): cause sedation or drowsiness in some patients
